Laboratory results from patent US12053459B2, “CDK2 inhibitors and methods of using the same” (Cedilla Therapeutics, Inc., priority 2021, dated 2024).

Experiments:
Kuramochi cells = assay: BrdU cell proliferation assay (colorimetric ELISA), Kuramochi cells; type: cell-based; conditions: class symbols A-D
Procedure: A BrdU assay was used as a measure of proliferation based on the DNA replication process of proliferating cells. BrdU, a pyrimidine analog, is added to the cell culture and incorporated into the DNA of proliferating cells. The presence of the BrdU analog was then measured through a colorimetric ELISA. After fixation and permeabilization of cells, peroxidase-conjugated antibody recognizing BrdU is added and allowed to incubate, followed by thorough washing to remove unbound antibody. In order to quantify the amount of bound antibody, peroxidase substrate is added and produces a color that can be measured at 450 nm.
On day −1, Kuramochi cells (Sekisui XenoTech JCRB0098) were seeded at 2,000 cells/well in columns 2-12 of a 96 well plate (Corning, CLS3596) in 150 uL media and allowed to adhere overnight at 37 degree with 5% CO2. In order to assess specificity of the compounds, Kuramochi RB^KO cells were also plated and treated, as RB^KO cells were not expected to show a proliferative response to CCNE/CDK specific inhibitors.
On day 0, the source plate was prepared by adding 10 mM compounds and performing 3-fold serial dilutions for a 4-point dose response of each compound. Using a multichannel pipette, 2 uL of the contents of the source plate were stamped into an intermediate plate with 500 uL of RPMI 1640 Media, GlutaMAX Supplement (Life Technologies, 61870127) in each well of a Nunc 96 DeepWell™ plate, non-treated 96 DeepWell plate, 2 mL/well, sterile, natural, 60/cs (Sigma Z717274) and mixed thoroughly. 50 uL from row A of this intermediate plate were added to rows A-H of one plate of previously seeded Kuramochi cells, and each subsequent row of the intermediate plate was added to a full plate of cells.
On day 4, the plates were developed using the BrdU ELISA Cell Proliferation Assay according to manufacturer's instructions (Roche, 11647229001). Briefly, BrdU was diluted 1:100 in Gibco®, Opti-MEM® and 20 μL/well was added, shaken for 10 minutes at 350 rpm, and then returned to the incubator for 1 hour. Following incubation, the medium was discarded, and the cells were fixed by adding 200 μL of Fix/Denature solution. The anti-BrdU peroxidase antibody was diluted 1:1000 in OptiMEM, added at 100 μL/well, and incubated while shaking (350 rpm) for one hour. Three washes with PBS were performed to remove any unbound antibody, followed by the addition of 100 μL of substrate solution to each well. […] was then added to halt the reaction, and plates were read out using an Envision spectrophotometer (Perkin Elmer) set to read 450 nm absorbance. Background absorbance values from empty wells were subtracted from all samples and then normalized to DMSO treated wells.

CDK2/Cyclin E1(14-475) = CDK2/Cyclin E1(14-475) (Homo sapiens, UniProt P24941); assay: Caliper LabChip EZ Reader mobility shift assay, inhibition of CDK2/Cyclin E1 activity; type: biochemical; conditions: class symbols A-D
Procedure: Inhibition of CDK2/Cyclin E1 activity in the presence of compounds of the present disclosure was evaluated using a Caliper LabChip® EZ Reader mobility shift assay. In the assay, activated CDK2/Cyclin E1 catalyzes the phosphorylation of a fluorescently tagged peptide 5-FAM-QSPKKG-CONH2 (PerkinElmer, FL Peptide 18) which induces a difference in capillary electrophoresis mobility. The peptide substrate and product were measured, and the conversion ratio was used to determine the inhibition (as % activity and IC50 values) of CDK2/Cyclin E1. Reactions contained 50 mM HEPES pH 7.5, 10 mM MgCl2, 1 mM EDTA, 2 mM DTT, 0.01% Brij35, 0.5 mg/mL BSA, 0.1% DMSO, 2.5 nM CDK2/Cyclin E1(14-475), 100 μM ATP, and 1.5 μM fluorescent peptide substrate.
Dose titrations of inhibitors in 100% DMSO were combined with 3.25 nM CDK2/Cyclin E1(14-475) and 130 μM of ATP in reaction buffer. The mixtures were incubated for 30 minutes before the addition of fluorescent peptide substrate to initiate the kinase reaction. The final conditions were 2.5 nM CDK2/Cyclin E1(14-475), 100 μM ATP, and 1.5 μM fluorescent peptide. The reactions were stopped after 100 minutes with the addition of EDTA (6 mM final EDTA concentration). The stopped reactions were analyzed on a Caliper LabChip® EZ Reader II. The conversion ratios were normalized to yield % activity, plotted against compound concentration, and fit to a four-parameter equation to determine the IC50 for each compound.

| SMILES | IC50 (Kuramochi cells) [µM] | IC50 (CDK2/Cyclin E1(14-475)) [µM] |
| --- | --- | --- |
| CNC(=O)[C@H](CCCc1ccccc1)NC(=O)C1CN(C(=O)c2coc(Cl)n2)CC2CN(C(=O)c3ccc(OC(C)C)c(OC)c3)CC21 (single isomer, unassigned) [I-233] | > 10 | > 10 |
| COc1cc(C(=O)N2CC3CN(C(=O)Cc4c[nH]c5cc(Cl)ccc45)CC(C(=O)N[C@@H](CCCc4cccc(O)c4)C(=O)NCCCCCN)C3C2)ccc1OC(C)C (single isomer, unassigned) [I-257] | > 10 | 0.5 to 5 |
| COc1cc(C(=O)N2CC3CN(C(=O)Cc4c[nH]c5cc(Cl)ccc45)CC(C(=O)N[C@@H](CCCc4cccc(O)c4)C(=O)NCCCCCN)C3C2)ccc1OC(C)C (single isomer, unassigned) [I-258] | > 10 | > 10 |
| COc1cc(C(=O)N2CC3CN(C(=O)Cc4c[nH]c5cc(Cl)ccc45)CC(C(=O)N[C@H](C(=O)NCCCCCNC(=O)OC(C)(C)C)C(C)OCc4ccccc4)C3C2)ccc1OC(C)C (single isomer, unassigned) [I-259] | 0.5 to 5 | ≤ 0.5 |
| COc1cc(C(=O)N2CC3CN(C(=O)Cc4c[nH]c5cc(Cl)ccc45)CC(C(=O)N[C@H](C(=O)NCCCCCNC(=O)OC(C)(C)C)C(C)OCc4ccccc4)C3C2)ccc1OC(C)C (single isomer, unassigned) [I-260] | > 10 | 0.5 to 5 |
| CNC(=O)[C@H](CCCc1ccccc1)NC(=O)C1CN(C(=O)Cc2c[nH]c3cc(Cl)ccc23)CC2CN(C(=O)c3ccc4oc(C)cc4c3)CC21 (stereo partly drawn) [I-3] | > 10 | > 10 |
| CNC(=O)[C@H](CCCc1ccccc1)NC(=O)C1CN(C(=O)Cc2c[nH]c3cc(Cl)ccc23)CC2CN(C(=O)c3ccc(OC)cc3)CC21 (stereo partly drawn) [I-5] | > 10 | > 10 |
| CNC(=O)[C@H](CCCc1ccccc1)NC(=O)C1CN(C(=O)Cc2c[nH]c3cc(Cl)ccc23)CC2CN(C(=O)c3ccc(OC4CC4)cc3)CC21 (stereo partly drawn) [I-6] | > 10 | 0.5 to 5 |
| CNC(=O)[C@H](CCCc1ccccc1)NC(=O)C1CN(C(=O)Cc2c[nH]c3cc(Cl)ccc23)CC2CN(C(=O)c3ccc(OCC(C)C)cc3)CC21 (stereo partly drawn) [I-7] | 5 to 10 | 0.5 to 5 |
| CNC(=O)[C@H](CCCc1ccccc1)NC(=O)C1CN(C(=O)Cc2c[nH]c3cc(Cl)ccc23)CC2CN(C(=O)c3ccc4[nH]ncc4c3)CC21 (stereo partly drawn) [I-8] | > 10 | > 10 |
| CNC(=O)[C@H](CCCc1ccccc1)NC(=O)C1CN(C(=O)Cc2c[nH]c3cc(Cl)ccc23)CC2CN(C(=O)c3ccc(OCCC4CC4)c(OC)c3)CC21 (stereo partly drawn) [I-9] | > 10 | 5 to 10 |
| CNC(=O)[C@H](CCCc1ccccc1)NC(=O)C1CN(C(=O)Cc2c[nH]c3cc(Cl)ccc23)CC2CN(C(=O)c3cnc4ccccc4c3)CC21 (stereo partly drawn) [I-10] | > 10 | > 10 |
| CNC(=O)[C@H](CCCc1ccccc1)NC(=O)C1CN(C(=O)Cc2c[nH]c3cc(Cl)ccc23)CC2CN(C(=O)c3cccc(-c4ccccc4)c3)CC21 (stereo partly drawn) [I-11] | > 10 | > 10 |
| CNC(=O)[C@H](CCCc1ccccc1)NC(=O)C1CN(C(=O)Cc2c[nH]c3cc(Cl)ccc23)CC2CN(C(=O)c3nc4ccccc4[nH]3)CC21 (stereo partly drawn) [I-12] | > 10 | > 10 |
| CNC(=O)[C@H](CCCc1ccccc1)NC(=O)C1CN(C(=O)Cc2c[nH]c3cc(Cl)ccc23)CC2CN(C(=O)c3ccc(-c4ccncc4)cc3)CC21 (stereo partly drawn) [I-14] | > 10 | > 10 |
| CNC(=O)[C@H](CCCc1ccccc1)NC(=O)C1CN(C(=O)Cc2c[nH]c3cc(Cl)ccc23)CC2CN(C(=O)c3ccc(C#N)cn3)CC21 (stereo partly drawn) [I-15] | > 10 | > 10 |
| CNC(=O)[C@H](CCCc1ccccc1)NC(=O)C1CN(C(=O)Cc2c[nH]c3cc(Cl)ccc23)CC2CN(C(=O)c3cnc(OC)cn3)CC21 (stereo partly drawn) [I-16] | > 10 | > 10 |
| CNC(=O)[C@H](CCCc1ccccc1)NC(=O)C1CN(C(=O)Cc2c[nH]c3cc(Cl)ccc23)CC2CN(C(=O)c3ccc4cnccc4c3)CC21 (stereo partly drawn) [I-18] | > 10 | > 10 |
| CNC(=O)[C@H](CCCc1ccccc1)NC(=O)C1CN(C(=O)Cc2c[nH]c3cc(Cl)ccc23)CC2CN(C(=O)c3cccc(CO)n3)CC21 (stereo partly drawn) [I-20] | > 10 | > 10 |
| CNC(=O)[C@H](CCCc1ccccc1)NC(=O)C1CN(C(=O)Cc2c[nH]c3cc(Cl)ccc23)CC2CN(C(=O)c3ccc(OC)nn3)CC21 (stereo partly drawn) [I-21] | > 10 | > 10 |
| CNC(=O)[C@H](CCCc1ccccc1)NC(=O)C1CN(C(=O)Cc2c[nH]c3cc(Cl)ccc23)CC2CN(C(=O)c3ccc(OC(C)C)c(Cl)c3)CC21 (stereo partly drawn) [I-24] | > 10 | > 10 |
| CNC(=O)[C@H](CCCc1ccccc1)NC(=O)C1CN(C(=O)Cc2c[nH]c3cc(Cl)ccc23)CC2CN(C(=O)c3ccc(OC(F)(F)F)cc3)CC21 (stereo partly drawn) [I-25] | > 10 | 0.5 to 5 |
| CNC(=O)[C@H](CCCc1ccccc1)NC(=O)C1CN(C(=O)Cc2c[nH]c3cc(Cl)ccc23)CC2CN(C(=O)c3cc(-c4ccccc4)nn3C)CC21 (stereo partly drawn) [I-26] | > 10 | 5 to 10 |
| CNC(=O)[C@H](CCCc1ccccc1)NC(=O)C1CN(C(=O)Cc2c[nH]c3cc(Cl)ccc23)CC2CN(C(=O)c3cn(-c4ccccc4)cn3)CC21 (stereo partly drawn) [I-27] | > 10 | > 10 |
| CNC(=O)[C@H](CCCc1ccccc1)NC(=O)C1CN(C(=O)Cc2c[nH]c3cc(Cl)ccc23)CC2CN(C(=O)c3n[nH]c4ccccc34)CC21 (stereo partly drawn) [I-28] | > 10 | > 10 |
| CNC(=O)[C@H](CCCc1ccccc1)NC(=O)C1CN(C(=O)Cc2c[nH]c3cc(Cl)ccc23)CC2CN(C(=O)c3cc(C4CC4)[nH]n3)CC21 (stereo partly drawn) [I-30] | > 10 | > 10 |
| CNC(=O)[C@H](CCCc1ccccc1)NC(=O)C1CN(C(=O)Cc2c[nH]c3cc(Cl)ccc23)CC2CN(C(=O)c3ccc(S(N)(=O)=O)c(OC)c3)CC21 (stereo partly drawn) [I-31] | > 10 | > 10 |
| CNC(=O)[C@H](CCCc1ccccc1)NC(=O)C1CN(C(=O)Cc2c[nH]c3cc(Cl)ccc23)CC2CN(C(=O)c3ccc(OC)c(O)c3)CC21 (stereo partly drawn) [I-34] | > 10 | 5 to 10 |
| CNC(=O)[C@H](CCCc1ccccc1)NC(=O)C1CN(C(=O)Cc2c[nH]c3cc(Cl)ccc23)CC2CN(C(=O)c3cc4ccccc4cn3)CC21 (stereo partly drawn) [I-37] | > 10 | > 10 |
| CNC(=O)[C@H](CCCc1ccccc1)NC(=O)C1CN(C(=O)Cc2c[nH]c3cc(Cl)ccc23)CC2CN(C(=O)c3cc4cc(C)ccc4[nH]3)CC21 (stereo partly drawn) [I-38] | > 10 | > 10 |
